We go through 6 compounds from patent EP4772505A1, “COMPOUND FOR DEGRADING ANDROGEN RECEPTOR AND MEDICAL USE THEREOF” (Ubix Therapeutics, Inc., priority 2023, dated 2025).

Molecules are shown by their SMILES. Residue numbers refer to the chain shown, from its start. Read-outs that look alike come from different tables or passages of the source.

The target in assay [1] is T1, Androgen Receptor (AR) (Homo sapiens, UniProt P10275, T878A).
T1 construct: endogenous in cells; host or cells: LNCaP
T1 sequence (P10275 1-920 T878A): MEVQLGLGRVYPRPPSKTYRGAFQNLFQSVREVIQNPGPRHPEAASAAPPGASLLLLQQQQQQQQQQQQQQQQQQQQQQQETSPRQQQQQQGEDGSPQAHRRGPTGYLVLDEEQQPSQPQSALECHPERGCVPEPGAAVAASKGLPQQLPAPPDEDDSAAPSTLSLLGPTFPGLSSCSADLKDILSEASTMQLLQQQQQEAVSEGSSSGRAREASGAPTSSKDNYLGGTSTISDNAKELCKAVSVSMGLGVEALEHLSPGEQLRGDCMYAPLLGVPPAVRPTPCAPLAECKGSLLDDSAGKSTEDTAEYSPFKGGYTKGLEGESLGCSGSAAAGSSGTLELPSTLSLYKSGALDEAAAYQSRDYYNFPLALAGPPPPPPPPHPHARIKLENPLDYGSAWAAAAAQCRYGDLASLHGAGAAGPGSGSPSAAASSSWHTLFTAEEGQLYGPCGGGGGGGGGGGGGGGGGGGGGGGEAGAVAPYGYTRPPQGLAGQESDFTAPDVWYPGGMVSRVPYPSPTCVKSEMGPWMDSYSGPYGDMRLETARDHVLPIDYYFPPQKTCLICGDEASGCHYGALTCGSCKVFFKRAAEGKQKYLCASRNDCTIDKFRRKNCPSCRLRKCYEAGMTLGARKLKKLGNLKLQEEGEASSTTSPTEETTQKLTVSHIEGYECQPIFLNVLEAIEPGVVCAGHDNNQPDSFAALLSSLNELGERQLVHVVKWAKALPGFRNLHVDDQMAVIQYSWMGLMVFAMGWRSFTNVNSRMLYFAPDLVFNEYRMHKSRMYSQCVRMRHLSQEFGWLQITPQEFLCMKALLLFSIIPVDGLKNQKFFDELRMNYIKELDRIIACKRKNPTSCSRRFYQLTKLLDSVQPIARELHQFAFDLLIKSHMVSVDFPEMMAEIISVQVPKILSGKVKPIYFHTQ
Kind of assay: Measurement of AR protein degradation in LNCaP cells by Western blotting. Type of assay: cell-based. Conditions: read-out: AR degradation in LNCaP cells (%). How it is done: (§1) The amount of AR protein present in LNCaP or VCaP cells was measured after treating them with the synthesized compound. The amount of AR protein was measured using Western blotting. The protocol for the experiments using LNCaP or VCaP cells was as follows.
(§2) [Culture] LNCaP cells were resuspended in RPMI1640 medium + HEPES (Hyclone, SH30255.01), 10% FBS (Hyclone, SV30207.02), and 1% Penicillin-streptomycin (Welgene, LS 202-02). 3 x 10^5 cells/mL were seeded in 12-well plates (1 mL per well) and cultured for 3 days. VCaP cells were resuspended in IMDM MEDIUM (Hyclone, SH30228.01), 20% FBS (Hyclone, SV30207.02), and 1% Penicillin-streptomycin (Welgene, LS 202-02), seeded at 9 x 10^5/mL in 1 mL per 12-well plate, and cultured for 3 days.
(§3) [Compound Treatment] 10 µL of 100x stock (e.g., 0.1, 1, 10 µM) compound solution at the final compound treatment concentration (e.g., 0.001, 0.01, 0.1 µM) was added to each well in 1 mL media, and cells were harvested after 20 hours. For DC50 measurement, 100x stock (0.01, 0.1, 1, 10, 100, 1000 µM) compound solutions at the final compound treatment concentration (0.0001, 0.001, 0.01, 0.1, 1, 10 µM) were used.
(§4) [Cell lysis] The cell pellet was suspended using 1% SDS lysis buffer (50 mM Tris, 1 mM EDTA, 1% SDS, pH 8.0, 0.5 mM PMSF, 1x Protease/Phosphatase inhibitor Cocktail (Cell Signaling Technology, 5872S)), and sonication (70% AMP, 10 cycles (30 sec ON/59 sec OFF)) was performed. After centrifugation at 4°C and 20,000 g for 20 minutes, the cell lysate was obtained and transferred to a new tube.
(§5) [Protein Quantification] A BCA protein assay (SMART™ BCA Protein Assay Kit, iNtRON Biotechnology, 21071) was performed using a 96-well microplate. 5 µL of cell lysate and 5 µL of 1% SDS lysis buffer were added to each well of the 96-well plate, followed by an additional 200 µL of BCA reagent (Reagent A: Reagent B = 50:1). The wells were incubated at 37°C for 30 minutes and cooled to room temperature for 10 minutes. After shaking for 10 seconds, the absorbance was measured at a wavelength of 562 nm. The unknown protein concentration was determined using a BSA standard curve (0, 0.125, 0.25, 0.5, 1, 2 mg/mL). Western blotting samples were prepared by mixing cell lysate, 1% SDS lysis buffer, 4x NuPAGE™ LDS Sample buffer (Invitrogen, NP0008), and 10X NuPAGE™ Sample Reducing Agent (Invitrogen, NP0009) and boiling at 70°C for 10 minutes.
(§6) [Electrophoresis] 10 µg of protein sample was loaded into each well of a NuPAGE™ 4 to 12%, Bis-Tris, 1.0 mm Mini Protein Gel, 15-well, 17-well, or 26-well (Invitrogen, NP0323BOX, NP0329BOX, or WG1403BOX) and electrophoresed for 40 minutes using NuPAGE™MES SDS Running Buffer (Invitrogen, NP0002) at 200 V (constant V).
(§7) [Transfer] Transfer was performed for 15 or 18 minutes using the electrophoresed gel and the Trans-Blot® Turbo™ Transfer Starter System (Bio-RAD, #17001918, Mini Nitrocellulose) at 1.3 A (constant A) and 25 V (limit V). To confirm protein transfer, 15 mL of Ponceau S solution (Sigma, P7170-1L) was used to stain for 1 minute, and then washed to check the degree of transfer.
(§8) [Blocking] The membrane for AR and GAPDH detection was blocked with 5% skim milk/0.2% TBST (Skim milk: BD, 232100/ 20X TBS: Biosesang, TR2008-100-00/ 10% Tween 20 Solution: Bio-RAD, #161-0781) for 45 minutes.
(§9) [Antibodies and Detection] Primary AR antibody (Androgen Receptor: CST, 5153S) was mixed with 5% skim milk/0.2% TBST at a ratio of 1:1,000 and reacted at room temperature for 3 hours or at 4°C overnight. Primary GAPDH antibody (CST, 2118S) was mixed with 5% skim milk/0.2% TBST at a ratio of 1:2,000 and reacted at room temperature for 3 hours or at 4°C overnight. Afterwards, TBST (0.2% Tween 20) was used for washing three times every 5 minutes. Secondary antibody to AR antibody, Anti-rabbit IgG, HRP-linked Antibody (CST, 7074S), was mixed with 5% skim milk/0.2% TBST at a ratio of 1:5,000 and reacted at room temperature for 45 minutes. […]
On the technique in general: In western blotting, separated proteins are transferred to a membrane and probed.

Assay [2] addresses T2, Androgen Receptor (AR) (Homo sapiens, UniProt P10275).
T2 sequence (P10275 1-920): T1 sequence (P10275 1-920 T878A) with A878T
Kind of assay: Measurement of AR protein degradation in VCaP cells by Western blotting. It is filed as cell-based. Also noted: endogenous in cells; host or cells: VCaP. Conditions: VCaP, 20 h, read-out: AR degradation in VCaP cells (%). On the procedure:
as §1, §2, §3, §4, §5, §6, §7, §8, §9

Consider `N#Cc1ccc(N2CCC(C(=O)Nc3ccc(OC4CCN(C5CCN(c6ccc(NC7CCC(=O)NC7=O)cc6F)CC5)CC4)cn3)CC2)cc1C(F)(F)F` (stereo not drawn) [Example 4, 1-(4-cyano-3-(trifluoromethyl)phenyl)-N-(5-((1'-(4-((2,6-dioxopiperidin-3-yl)amino)-2-fluorophenyl)-[1,4'-bipiperidin]-4-yl)oxy)pyridin-2-yl)piperidine-4-carboxamide], for which, at Androgen Receptor (AR) [1] (LNCaP, 20 h), the Dmax at 0.01 µM stood at 76% and the Dmax at 0.1 µM came out at 93%.
`N#Cc1ncc(N2CCC(C(=O)Nc3ccc(OC4CCN(CC5CCN(c6ccc(NC7CCC(=O)NC7=O)cc6F)CC5)CC4)cn3)CC2)cc1C(F)(F)F` (stereo not drawn) [Example 5, 1-(6-cyano-5-(trifluoromethyl)pyridin-3-yl)-N-(5-((1-((1-(4-((2,6-dioxopiperidin-3-yl)amino)-2-fluorophenyl)piperidin-4-yl)methyl)piperidin-4-yl)oxy)pyridin-2-yl)piperidine-4-carboxamide]: the Dmax at 0.01 µM on Androgen Receptor (AR) [1] (10 nM compound, 20 hours, LNCaP cells) was determined as 63%. On Androgen Receptor (AR) [1] (100 nM compound, 20 hours, LNCaP cells), the Dmax at 0.1 µM stood at 97%.
Take `N#Cc1ccc(N2CCN(C(=O)Nc3ccc(OC4CCN(CC5CCN(c6ccc(NC7CCC(=O)NC7=O)cc6F)CC5)CC4)cn3)CC2)cc1C(F)(F)F` (stereo not drawn) [Example 6, 4-(4-cyano-3-(trifluoromethyl)phenyl)-N-(5-((1-((1-(4-((2,6-dioxopiperidin-3-yl)amino)-2-fluorophenyl)piperidin-4-yl)methyl)piperidin-4-yl)oxy)pyridin-2-yl)piperazine-1-carboxamide]: at Androgen Receptor (AR) [1] (LNCaP, 20 h), the Dmax at 0.01 µM stood at 84% and the Dmax at 0.1 µM worked out at 99%.
With `N#Cc1ccc(N2CCC(C(=O)Nc3ccc(OC4CCN(CC5CCN(c6ccc(NC7CCC(=O)NC7=O)cc6F)CC5)CC4)cn3)CC2)c(F)c1C(F)(F)F` (stereo not drawn) [Example 11, 1-(4-cyano-2-fluoro-3-(trifluoromethyl)phenyl)-N-(5-((1-((1-(4-((2,6-dioxopiperidin-3-yl)amino)-2-fluorophenyl)piperidin-4-yl)methyl)piperidin-4-yl)oxy)pyridin-2-yl)piperidine-4-carboxamide], on Androgen Receptor (AR) [2], the Dmax at 0.01 µM stood at 89% and the Dmax at 0.1 µM turned out to be 99%.
`N#Cc1ccc(N2CCC(C(=O)Nc3ccc(OC4CCN(CC5CCN(c6ccc(NC7CCC(=O)NC7=O)cc6F)CC5)CC4)nn3)CC2)c(F)c1C(F)(F)F` (stereo not drawn) [Example 14, 1-(4-cyano-2-fluoro-3-(trifluoromethyl)phenyl)-N-(6-((1-((1-(4-((2,6-dioxopiperidin-3-yl)amino)-2-fluorophenyl)piperidin-4-yl)methyl)piperidin-4-yl)oxy)pyridazin-3-yl)piperidine-4-carboxamide]: at Androgen Receptor (AR) [2], the Dmax at 0.01 µM worked out at 87% and the Dmax at 0.1 µM stood at 95%.
`N#Cc1ccc(N2CCC(C(=O)Nc3ccc(OC4CCN(CC5CCN(c6ccc(NC7CCC(=O)NC7=O)cc6C(F)(F)F)CC5)CC4)cn3)CC2)cc1C(F)(F)F` (stereo not drawn) [Example 18, 1-(4-cyano-3-(trifluoromethyl)phenyl)-N-(5-((1-((1-(4-((2,6-dioxopiperidin-3-yl)amino)-2-(trifluoromethyl)phenyl)piperidin-4-yl)methyl)piperidin-4-yl)oxy)pyridin-2-yl)piperidine-4-carboxamide]: at Androgen Receptor (AR) [1] (LNCaP, 20 h), the Dmax at 0.01 µM came out at 51% and the Dmax at 0.1 µM turned out to be 98%.
